Source: US10975051B2, “Phenylsulfonamido-benzofuran derivatives and uses thereof in the treatment of proliferative diseases” (Memorial Sloan-Kettering Cancer Center, priority 2015, dated 2021)
One block for each molecule: values may come before it.

Tests used:
[1] = molecular target: BCL-XL (Homo sapiens, UniProt Q07817); conditions: Oltersdorf et al., Nature, 2005; cited from earlier work
[2] = molecular target: BCL-2 (Homo sapiens, UniProt P10415); conditions: Oltersdorf et al., Nature, 2005; cited from earlier work
[3] = molecular target: T1, BCL-W (Homo sapiens, UniProt Q92843); conditions: Oltersdorf et al., Nature, 2005; cited from earlier work
T1 sequence (Q92843 1-193): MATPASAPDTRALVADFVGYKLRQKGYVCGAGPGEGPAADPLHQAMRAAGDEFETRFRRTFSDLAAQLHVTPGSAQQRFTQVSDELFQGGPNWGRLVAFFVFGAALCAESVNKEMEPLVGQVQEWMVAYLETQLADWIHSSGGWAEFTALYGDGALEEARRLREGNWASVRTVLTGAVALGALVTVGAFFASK

[4] = molecular target: MCL-1 (Homo sapiens, UniProt Q07820); conditions: background statement; cited from earlier work
[5] = system: MCL-1-addicted cancer cell-line, H23; assay: apoptosis induction in MCL-1-addicted cancer cell line H23; format: cell-based; conditions: H23 cells; for induction of apoptosis: FIG. 1B
[6] = system: MCL-1-addicted cancer cell-line H82; assay: apoptosis induction in MCL-1-addicted cancer cell line H82; format: cell-based; conditions: H82 cells, FIG. 1B
[7] = system: DMS53, SW1417, and H82 cell lines; assay: apoptotic induction in DMS53, SW1417 and H82 cell lines (selectively addicted to BCL-2, BCL-XL and MCL-1); format: cell-based; conditions: H82 versus DMS53 and SW1417, FIG. 2B

Sequence of MCL-1 (Q07820 whole entry, species assumed): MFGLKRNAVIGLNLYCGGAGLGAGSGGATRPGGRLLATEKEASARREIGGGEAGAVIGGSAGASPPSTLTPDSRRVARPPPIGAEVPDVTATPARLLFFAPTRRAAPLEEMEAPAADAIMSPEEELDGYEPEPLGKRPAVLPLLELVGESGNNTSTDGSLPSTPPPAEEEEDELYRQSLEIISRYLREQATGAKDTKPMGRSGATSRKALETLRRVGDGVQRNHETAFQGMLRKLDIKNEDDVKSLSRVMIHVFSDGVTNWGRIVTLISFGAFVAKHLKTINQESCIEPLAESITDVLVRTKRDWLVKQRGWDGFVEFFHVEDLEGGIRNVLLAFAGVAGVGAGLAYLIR
Sequence of BCL-2 (P10415 whole entry, species assumed): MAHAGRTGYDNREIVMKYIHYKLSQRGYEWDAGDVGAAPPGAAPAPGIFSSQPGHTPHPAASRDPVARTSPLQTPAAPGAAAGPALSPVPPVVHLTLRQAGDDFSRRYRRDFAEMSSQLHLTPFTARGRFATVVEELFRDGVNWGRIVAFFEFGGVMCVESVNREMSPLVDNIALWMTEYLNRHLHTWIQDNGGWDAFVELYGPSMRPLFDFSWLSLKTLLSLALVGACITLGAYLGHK
Sequence of BCL-XL (Q07817 whole entry, species assumed): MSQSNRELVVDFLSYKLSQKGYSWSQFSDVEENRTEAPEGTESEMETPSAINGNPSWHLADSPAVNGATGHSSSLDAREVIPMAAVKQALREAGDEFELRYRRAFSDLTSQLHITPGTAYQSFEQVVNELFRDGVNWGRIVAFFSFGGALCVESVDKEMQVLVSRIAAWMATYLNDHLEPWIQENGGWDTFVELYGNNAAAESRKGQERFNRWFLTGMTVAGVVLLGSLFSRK

SMILES: CC1(C)CCC(c2ccc(Cl)cc2)=C(CN2CCN(c3ccc(C(=O)NS(=O)(=O)c4ccc(N[C@H](CCN5CCOCC5)CSc5ccccc5)c(S(=O)(=O)C(F)(F)F)c4)cc3)CC2)C1 [ABT-263]
- binding affinity to BCL-XL [1]: high affinity
- binding affinity to BCL-2 [2]: high affinity
- binding affinity to BCL-W [3]: high affinity
- inhibition of MCL-1 [4]: do not inhibit

- EC50 ([5]; Homo sapiens, NCI-H23, FIG. 1A, read-out: EC50 of inducing apoptosis): 600 nM
SMILES: CCOC(=O)c1c(C)oc2cc(Br)c(NS(=O)(=O)c3ccc(OC)cc3)cc12 [Compound 1]
- induction of apoptosis ([5]; 1 µM of compound): robust apoptosis
- induction of apoptosis ([5]; 1 μM of compound): robust apoptosis
- induction of apoptosis ([6]; 1 µM of compound): robust apoptosis
- induction of apoptosis ([6]; 1 μM of compound): robust apoptosis
- selectivity of apoptosis induction in MCL-1 addicted cancer cell line over BCL-2 or BCL-XL addicted cancer cell lines [7]: selectively induce apoptosis

SMILES: CN(C)CC[C@H](CSc1ccccc1)Nc1ccc(S(=O)(=O)NC(=O)c2ccc(N3CCN(Cc4ccccc4-c4ccc(Cl)cc4)CC3)cc2)cc1[N+](=O)[O-] [ABT-737, (R)-4-(4-((4′-chloro-[1,1′-biphenyl]-2-yl)methyl)piperazin-1-yl)-N-((4-((−4-(dimethylamino)-1-(phenylthio)butan-2-yl)amino)-3-nitrophenyl)sulfonyl)benzamide]
- binding affinity to BCL-XL [1]: high affinity
- binding affinity to BCL-2 [2]: high affinity
- binding affinity to BCL-W [3]: high affinity
- inhibition of MCL-1 [4]: do not inhibit
